Structures can show the parent of a compound that is named as a salt. Where two headings read alike, the source gives them in different places.
Experiments:
[1] = test system: α-MSH-induced [Ca2+]i in HEK293 cells; settings: cited from earlier work
[2] = test system: [Ca2+]i in HEK293 cells
[3] = test system: HEK293 cells
[4] = test system: transmitter release; settings: co-administered with calcium chelator BAPTA/AM; ref Di Virgilio et al. 1988; cited from earlier work

In the case of cholera toxin, the “effect on α-MSH-induced [Ca2+]i” value [1] is listed as “significantly attenuated”.

With `CCCN(CCC)S(=O)(=O)c1ccc(C(=O)O)cc1` [probenecid] the “interference with EGTA chelation of calcium” value ([2]; probenecid 1 mM in CLB-HG, Ca2+-free buffer-HG, -Ward or -Ion Optix, Supplementary Fig. 7) was “interfered with EGTA chelation of calcium”, the “interference with EGTA chelation of calcium” value ([2]; probenecid 0.5–2.5 mM, pluronic acid, Supplementary Fig. 5) was “interferes with EGTA chelation of calcium” and the “retention of Fura-2 in cells” value ([3]; probenecid 1 mM vs 2.5 mM) was 1 mM probenecid worked as efficiently as 2.5 mM for Fura-2 retention. The “retention of Fura-2/AM and Fura-2 in cells” value ([3]; probenecid 2.5 mM, three independent experiments) was “retains Fura-2/AM and Fura-2 in HEK293 cell monolayers” and the “effect on transmitter release” value [4] was “profound and prolonged attenuation of transmitter release”.

For `C[C@H](CCC(=O)O)C[C@H](C)C[C@H](C)C(=O)/C=C(\O)[C@H](C)C[C@H](C)C/C=C/[C@@H](C)[C@@H](O)[C@@H](C)[C@@H](O)C[C@@H]1CC[C@@](C)([C@H]2CC[C@@](C)([C@@H](C)O)O2)O1` [ionomycin, ionomycin calcium salt], the “ionomycin effect on calcium signal” value ([2]; presence or absence of probenecid, ionomycin 10 µL of 0.33 mM stock in DMSO) was “rapid increase in calcium signal”.

For “ethylene glycol-bis (β-aminoethyl ether)-N,N,N′,N′-tetraacetic acid [EGTA]”, the “EGTA chelation of calcium in specific Rmin wells” value ([2]; EGTA 5.5 mM final, cells co-loaded with Fura-2/AM and 10 µM EGTA in DMEM, probenecid 1 mM in esterase buffer, three independent experiments) was “chelated calcium in the presence of either Ca^2+-free-HG buffer or Ca^2+-free-Ward buffer”, the “effect of EGTA injection on basal calcium signal, optimised assay conditions (with probenecid)” value ([2]; cell monolayers, EGTA 10 µL of 165 mM stock) was “did not reduce basal calcium signal” and the “EGTA effect on fluorescence ratio (340/380), specific Rmin wells” value ([2]; cells depleted of calcium by EGTA prior to imaging, calcium-free buffer) was “rapid small decrease in fluorescence 340/380 ratio”. For the same molecule, the “EGTA effect on fluorescence ratio (340/380), with probenecid” value ([2]; in the presence of probenecid) was “either has no effect on fluorescence ratio or increases the fluorescence ratio”.

From publication PMC8111326 (Journal of Molecular Endocrinology, 2021)
